{
  "source": "patent US20120016010A1",
  "about": "“RNA Interference Mediated Inhibition of BTB and CNC Homology 1, Basic Leucine Zipper Transcription Factor 1 (BACH1) Gene Expression Using Short Interfering Nucleic Acid (siNA)” (Merck Sharp & Dohme Corp, priority 2009, published 2012)",
  "key": {"Bach1 mRNA [1]": {"system": "Bach1 mRNA", "assay": "Initial screen: Bach1 mRNA knock-down in mouse NIH 3T3 cells (96-well transfection, quantitative RT-PCR)", "assay_type": "cell-based", "settings": "mouse NIH3T3 cells, n = 2, 24 hrs post-transfection, protocol 10 nM siNA", "description": "(§1) All cells were obtained from ATCC (Manassas, Va.) unless otherwise indicated. Cells were grown and transfected under standard conditions, which are detailed below for each cell line.\n(§2) Cells were plated in all wells of a tissue-culture treated, 96-well plate at a final count of 5000 cells/well in 100 μL of the appropriate culture media. The cells were cultured for 24 hours after plating at 37° C. in the presence of 5% CO2.\n(§3) After 24 hours, complexes containing siNA and RNAiMax were created as follows: A solution of RNAiMax diluted 33-fold in OPTI-MEM was prepared. […] After incubation of RNAiMax/OPTI-MEM solution at room temperature for 5 min, an equal volume of the siNA solution and the RNAiMax solution were added together for each of the siNAs.\n(§4) This solution was incubated at room temperature for 20 minutes. After incubation, 20 uL of the solution was added to each of the relevant wells. The final concentration of siNA in each well was 10 nM and the final volume of RNAiMax in each well was 0.3 ul. […]\n(§5) Briefly, a 60 uL (1 plate) or 110 uL (2 plates) of the Lysis Solution with DNase I was dispensed into each well of the Lysis Buffer Plate (twin.tec full skirt plate). The lysis buffer and stop plates were stored at 4° C. until the cells were washed.\n(§6) The plate was spun at 1100 rpm for 5 minutes. The culture medium was aspirated and discarded from the wells of the culture plate. The lysis was performed automatically using a BioMek FX instrument and method. After the Biomek method was completed, the lysis plate was incubated for 2 min at room temperature. The lysis plate can be stored for 2 hours at 4° C., or at −20° C. or −80° C. for two months.\n(§7) Each well of the reverse transcription plate required 10 uL of 2× reverse transcriptase Buffer, 1 uL of 20× reverse transcription enzyme and 2 uL of nuclease-free water. The reverse transcription master mix was prepared by mixing 2× reverse transcription buffer, 20× reverse transcription enzyme mix, and nuclease-free water. 13 uL of the reverse transcription master mix was dispensed into each well of the reverse transcription plate (semi-skirted). A separate reverse transcription plate was prepared for each cell plate. The plate was loaded onto a Biomek NX or Biomek FX Dual −96 and the Biomek method was run. The program is programmed to automatically added 7 uL of lysate from the cell lysis procedure described above into each well of the reverse transcription plate. The plate is sealed and spun on a centrifuge (1000 rpm for 30 seconds) to settle the contents to the bottom of the reverse transcription plate. The plate is placed in a thermocycler at 37° C. for 60 min, 95° C. for 5 min, and 4° C. until the plate is removed from the thermocycler. Upon removal, if not used immediately, the plate was frozen at −20° C.\n(§8) A series of probes and primers were used to detect the various mRNA transcripts of the genes of Bach1, HMOX-1, and GAPDH in mouse and human cell lines. The assays were performed on an ABI 7900 instrument, according to the manufacturer's instructions. […] The PCR reactions were carried out at 50° C. for 2 min, 95° C. for 20 min followed by 40 cycles at 95° C. for 15 secs and 60° C. for 1 min\n(§9) Within each experiment, the […] was set in the exponential phase of the amplification curve, and based on the intersection point of the baselines with the amplification curve, a Ct value was assigned by the instrument.\n(§10) The expression level of the gene of interest and % knock-down was calculated using Comparative Ct method:\n(§11) ΔCt=ΔCt(Target siRNA)−ΔCt(NTC)\n(§12) Relative expression level=2^−ΔΔCt\n(§13) The non-targeting control siNA was, unless otherwise indicated, chosen as the value against which to calculate the % knock-down, because it is the most relevant control."}, "Bach1 mRNA [2]": {"system": "Bach1 mRNA", "assay": "Initial screen: Bach1 mRNA knock-down in human A549 cells (96-well transfection, quantitative RT-PCR)", "assay_type": "cell-based", "settings": "Bach1 mRNA, 10 nM siNA, human A549 cells, n = 2, mean ± S.D., normalized to GAPDH and non-targeting control, 24 hrs post-transfection", "description": "as §1, §2, §3, §4, §5, §6, §7, §8, §9, §10, §11, §12, §13"}},
  "note": "[invAb] = inverted abasic unit; d = 2'-deoxy (DNA); m = 2'-O-methyl; r = 2'-OH (RNA); f = 2'-fluoro",
  "data": [
    {"substance": "29948-DC: Bach1 siNA duplex, target site 1285; sense B GcGAGAAGuGGcAGAAcAc TTB (SEQ 45); antisense GUGuucuGccACuuCuCGcUU (SEQ 46) (sense GCGAGAAGUGGCAGAACACTT; antisense GUGUUCUGCCACUUCUCGCUU; sense: DNA at AGT, 2'-fluoro at CU, [invAb] at 5' end, 3' end, backbone not given here; antisense: sugars from the 5' end rrrffffmffmmffmfmmfmm, backbone not given here)", "values": [
      {"measurement": "% KD", "setting": "Bach1 mRNA [1]", "result": "−16.3 ± 12.6", "unit": "%"},
      {"measurement": "% KD", "setting": "Bach1 mRNA [2]", "result": "51.9 ± 3^ %"}
    ]},
    {"substance": "29949-DC: Bach1 siNA duplex, target site 664; sense B GuGuAAAcuccGcAGGuAu TTB (SEQ 47); antisense AUAccuGcGGAGuuuAcAcUU (SEQ 48) (sense GUGUAAACUCCGCAGGUAUTT; antisense AUACCUGCGGAGUUUACACUU; sense: DNA at AGT, 2'-fluoro at CU, [invAb] at 5' end, 3' end, backbone not given here; antisense: sugars from the 5' end rrrfffmfmmmmfffmfmfmm, backbone not given here)", "values": [
      {"measurement": "% KD", "setting": "Bach1 mRNA [1]", "result": "−7.1 ± 5.2", "unit": "%"},
      {"measurement": "% KD", "setting": "Bach1 mRNA [2]", "result": "25 ± 1.4", "unit": "%"}
    ]},
    {"substance": "29950-DC: Bach1 siNA duplex, target site 470; sense B GAGGAAuccuGcuuucAGu TTB (SEQ 49); antisense ACUGAAAGcAGGAuuccucUU (SEQ 50) (sense GAGGAAUCCUGCUUUCAGUTT; antisense ACUGAAAGCAGGAUUCCUCUU; sense: DNA at AGT, 2'-fluoro at CU, [invAb] at 5' end, 3' end, backbone not given here; antisense: sugars from the 5' end rrrmmmmmfmmmmffffffmm, backbone not given here)", "values": [
      {"measurement": "% KD", "setting": "Bach1 mRNA [1]", "result": "42.5 ± 6.4", "unit": "%"},
      {"measurement": "% KD", "setting": "Bach1 mRNA [2]", "result": "90.6 ± 1.7", "unit": "%"}
    ]},
    {"substance": "29951-DC: Bach1 siNA duplex, target site 1162; sense B GccuuuGucAGGuAcAGAc TTB (SEQ 51); antisense GUCuGuAccuGAcAAAGGcUU (SEQ 52) (sense GCCUUUGUCAGGUACAGACTT; antisense GUCUGUACCUGACAAAGGCUU; sense: DNA at AGT, 2'-fluoro at CU, [invAb] at 5' end, 3' end, backbone not given here; antisense: sugars from the 5' end rrrfmfmfffmmfmmmmmfmm, backbone not given here)", "values": [
      {"measurement": "% KD", "setting": "Bach1 mRNA [1]", "result": "−22 ± 13.2", "unit": "%"},
      {"measurement": "% KD", "setting": "Bach1 mRNA [2]", "result": "39 ± 11.2", "unit": "%"}
    ]},
    {"substance": "29952-DC: Bach1 siNA duplex, target site 732; sense B cAuAuGAGuccAuGuGcuu TTB (SEQ 53); antisense AAGcAcAuGGAcucAuAuGUU (SEQ 54) (sense CAUAUGAGUCCAUGUGCUUTT; antisense AAGCACAUGGACUCAUAUGUU; sense: DNA at AGT, 2'-fluoro at CU, [invAb] at 5' end, 3' end, backbone not given here; antisense: sugars from the 5' end rrrfmfmfmmmfffmfmfmmm, backbone not given here)", "values": [
      {"measurement": "% KD", "setting": "Bach1 mRNA [1]", "result": "−15.7 ± 1.8", "unit": "%"},
      {"measurement": "% KD", "setting": "Bach1 mRNA [2]", "result": "75 ± 0.9", "unit": "%"}
    ]},
    {"substance": "29953-DC: Bach1 siNA duplex, target site 1096; sense B cAcAuAuGAccAAuAuGGu TTB (SEQ 55); antisense ACCAuAuuGGucAuAuGuGUU (SEQ 56) (sense CACAUAUGACCAAUAUGGUTT; antisense ACCAUAUUGGUCAUAUGUGUU; sense: DNA at AGT, 2'-fluoro at CU, [invAb] at 5' end, 3' end, backbone not given here; antisense: sugars from the 5' end rrrmfmffmmffmfmfmfmmm, backbone not given here)", "values": [
      {"measurement": "% KD", "setting": "Bach1 mRNA [1]", "result": "−11 ± 3.3", "unit": "%"},
      {"measurement": "% KD", "setting": "Bach1 mRNA [2]", "result": "24 ± 14.1", "unit": "%"}
    ]},
    {"substance": "29954-DC: Bach1 siNA duplex, target site 1389; sense B cAGAAcAGAucucAcAGAA TTB (SEQ 57); antisense UCCuGuGAGAucuGuucuGUU (SEQ 58) (sense CAGAACAGAUCUCACAGAATT; antisense UCCUGUGAGAUCUGUUCUGUU; sense: DNA at AGT, 2'-fluoro at CU, [invAb] at 5' end, 3' end, backbone not given here; antisense: sugars from the 5' end rrrfmfmmmmfffmffffmmm, backbone not given here)", "values": [
      {"measurement": "% KD", "setting": "Bach1 mRNA [1]", "result": "−10.2 ± 10.1", "unit": "%"},
      {"measurement": "% KD", "setting": "Bach1 mRNA [2]", "result": "63.4 ± 0.9", "unit": "%"}
    ]},
    {"substance": "29955-DC: Bach1 siNA duplex, target site 737; sense B GAGuccAuGuGcuuAGAGA TTB (SEQ 59); antisense UCUcuAAGcAcAuGGAcucUU (SEQ 60) (sense GAGUCCAUGUGCUUAGAGATT; antisense UCUCUAAGCACAUGGACUCUU; sense: sugars from the 5' end rrrfffdfdfdfffddddddd, [invAb] at 5' end, 3' end, backbone not given here; antisense: sugars from the 5' end rrrffmmmfmfmfmmmfffmm, backbone not given here)", "values": [
      {"measurement": "% KD", "setting": "Bach1 mRNA [1]", "result": "−12.2 ± 4.3", "unit": "%"},
      {"measurement": "% KD", "setting": "Bach1 mRNA [2]", "result": "14.6 ± 0.2", "unit": "%"}
    ]},
    {"substance": "29958-DC: Bach1 siNA duplex, target site 851; sense B GucAAAGAcAuucAuGcuu TTB (SEQ 65); antisense AAGcAuGAAuGucuuuGAcUU (SEQ 66) (sense GUCAAAGACAUUCAUGCUUTT; antisense AAGCAUGAAUGUCUUUGACUU; sense: DNA at AGT, 2'-fluoro at CU, [invAb] at 5' end, 3' end, backbone not given here; antisense: sugars from the 5' end rrrfmfmmmfmfffffmmfmm, backbone not given here)", "values": [
      {"measurement": "% KD", "setting": "Bach1 mRNA [1]", "result": "−50.4 ± 6.8", "unit": "%"},
      {"measurement": "% KD", "setting": "Bach1 mRNA [2]", "result": "75.7 ± 8.6", "unit": "%"}
    ]},
    {"substance": "29959-DC: Bach1 siNA duplex, target site 1415; sense B GAGuGuccGuGGuuAGGuA TTB (SEQ 67); antisense UACcuAAccAcGGAcAcuCUU (SEQ 68) (sense GAGUGUCCGUGGUUAGGUATT; antisense UACCUAACCACGGACACUCUU; sense: DNA at AGT, 2'-fluoro at CU, [invAb] at 5' end, 3' end, backbone not given here; antisense: chemistry not given here; in key)", "values": [
      {"measurement": "% KD", "setting": "Bach1 mRNA [1]", "result": "−9.9 ± 3.8", "unit": "%"},
      {"measurement": "% KD", "setting": "Bach1 mRNA [2]", "result": "68 ± 14.9", "unit": "%"}
    ]},
    {"substance": "29960-DC: Bach1 siNA duplex, target site 1377; sense B ccAAAGAuGGcucAGAAcA TTB (SEQ 69); antisense UGUucuGAGccAucuuuGGUU (SEQ 70) (sense CCAAAGAUGGCUCAGAACATT; antisense UGUUCUGAGCCAUCUUUGGUU; sense: DNA at AGT, 2'-fluoro at CU, [invAb] at 5' end, 3' end, backbone not given here; antisense: sugars from the 5' end rrrfffmmmffmfffffmmmm, backbone not given here)", "values": [
      {"measurement": "% KD", "setting": "Bach1 mRNA [1]", "result": "5.9 ± 6.4", "unit": "%"},
      {"measurement": "% KD", "setting": "Bach1 mRNA [2]", "result": "34 ± 3", "unit": "%"}
    ]},
    {"substance": "29962-DC: Bach1 siNA duplex, target site 1240; sense B cAGGGAAGAuAGuAGuGuu TTB (SEQ 73); antisense AACAcuAcuAucuucccuGUU (SEQ 74) (sense CAGGGAAGAUAGUAGUGUUTT; antisense AACACUACUAUCUUCCCUGUU; sense: DNA at AGT, 2'-fluoro at CU, [invAb] at 5' end, 3' end, backbone not given here; antisense: sugars from the 5' end rrrmffmffmffffffffmmm, backbone not given here)", "values": [
      {"measurement": "% KD", "setting": "Bach1 mRNA [1]", "result": "21.3 ± 2.2", "unit": "%"},
      {"measurement": "% KD", "setting": "Bach1 mRNA [2]", "result": "88 ± 0.7", "unit": "%"}
    ]}
  ]
}
